Data: patent US8329675B2, “Inhibitors of fatty acid amide hydrolase” (Infinity Pharmaceuticals, Inc., priority 2006, dated 2012)

What follows are molecules tested against T1, human FAAH (Homo sapiens, UniProt O00519) (assay: Human FAAH biochemical inhibition assay (AMC arachidonoyl amide fluorescence)). Conditions: Table 1, human FAAH (no asterisk); read-out: Activity (Ki).
T1 construct: host or cells: COS-7 cells, transient transfection; 13,000 g membrane fraction solubilised in 1% Triton X-100
T1 sequence (O00519 1-579): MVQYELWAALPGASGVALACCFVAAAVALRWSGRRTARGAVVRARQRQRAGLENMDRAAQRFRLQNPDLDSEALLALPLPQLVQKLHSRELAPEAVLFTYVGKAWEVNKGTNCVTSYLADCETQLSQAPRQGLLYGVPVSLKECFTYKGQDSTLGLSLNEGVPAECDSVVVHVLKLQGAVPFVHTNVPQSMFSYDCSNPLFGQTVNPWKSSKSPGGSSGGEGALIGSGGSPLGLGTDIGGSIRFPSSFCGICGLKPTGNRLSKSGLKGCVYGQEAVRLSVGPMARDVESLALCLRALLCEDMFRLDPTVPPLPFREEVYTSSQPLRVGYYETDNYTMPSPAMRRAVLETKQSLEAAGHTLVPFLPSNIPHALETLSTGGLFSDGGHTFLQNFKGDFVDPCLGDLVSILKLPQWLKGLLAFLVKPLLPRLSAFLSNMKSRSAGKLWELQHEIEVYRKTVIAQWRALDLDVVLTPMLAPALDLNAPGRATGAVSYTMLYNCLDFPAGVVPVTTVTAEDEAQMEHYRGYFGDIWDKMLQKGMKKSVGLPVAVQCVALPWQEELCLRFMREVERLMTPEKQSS
Method: The resulting solution is added into one dish of 30-40% confluent COS-7 cells in a drop-wise manner. The COS-7 cell dish is subsequently incubated for 48 hours. The cells are then harvested.
Harvest procedure: Media was aspirated from the dishes and the cells rinsed with 10 mL PBS. The PBS was removed and 3 mLs of PBS added to the dish. The dish was scraped to resuspend the cells, and the subsequent cell suspension collected into a 15 ml conical tube. The cells were pelleted by centrifugation at 1200 rpm for 5 minutes in a bench top centrifuge. PBS was removed and the cell pellet snap frozen in liquid nitrogen, store at −80 C.
The pellets were dounce homogenized and then sonicated to produce cell extract. The cell extract was subsequently centrifuged at 1000 g to remove cellular debris. The pellet was discarded and the supernatant centrifuged at 13,000 g for 20 minutes. The pellet contained membrane bound FAAH. The supernatant was discarded and the pellet resolubilized.
(2) Re-solubilization: The fraction of interest, (13,000 g, membrane fraction) was re-suspended in re-suspension buffer (20 mM Hepes pH 7.8, 10% v/v Glycerol, 1 mM EDTA, 1% Triton X-100) (2.3 mL re-suspension and the sample incubated on ice for 1 hour and then centrifuged to at 13,000 g remove any particulate matter. The supernatant containing solubilized human FAAH was aliquoted and snap frozen in liquid nitrogen and stored at −80° C. until use.
FAAH reaction buffer: 50 mM Hepes (pH 7.5), 1 mM EDTA, 0.2% Triton X-100.
Human FAAH assay; Experimental Protocol: A 0.1 mg/mL Human FAAH solution is made up in FAAH reaction buffer, and 24 ul pipetted into a 384 well plate. To this is added 1 uL of a 3 fold serially diluted inhibitor from a DMSO stock solution. The FAAH solution and inhibitor are incubated for 30 minutes at room temperature. The FAAH reaction is initiated by the addition of 25 uL of 40 uM AMC Arachidonoyl Amide in FAAH reaction buffer, yielding a final reaction human FAAH preparation concentration of 0.05 mg/ml and AMC-Arachidonoyl substrate concentration of 20 uM, reaction volume 50 uL. The reaction is allowed to proceed for 4 hours at room temperature. […] The microtiter plate in read in the envision plate reader.

Row | Ki | SMILES
1 | < 10 nM | OB(O)c1ccc(OCc2cccc(Br)c2)c(Cl)c1 [Compound I-147]
2 | 10 to 1000 nM | CCOc1cc(F)cc(B(O)O)c1 [Compound I-16]
3 | 10 to 1000 nM | OB(O)c1cc(Br)cc(Br)c1 [Compound I-23]
4 | 10 to 100 nM | OB(O)c1cccc(Br)c1 [Compound I-29]
5 | < 10 nM | O=C(NCc1ccccc1)c1ccc(B(O)O)cc1 [Compound I-164]
6 | 10 to 100 nM | OB(O)c1ccc(Cl)c(Cl)c1 [Compound I-75]
7 | > 1000 nM | COc1ccc(CN(Cc2ccc(OC)cc2)S(=O)(=O)c2ccc(B(O)O)cc2)cc1 [Compound I-117]
8 | 10 to 1000 nM | OB(O)c1cccc(OC(F)(F)F)c1 [Compound I-45]
9 | 10 to 1000 nM | OB(O)c1cccc2ncccc12 [Compound I-113]
10 | < 10 nM | CCC[C@H]1CC[C@H](c2ccc(B(O)O)cc2)CC1 [Compound I-30]
11 | 10 to 1000 nM | Cc1cc(Br)cc(B(O)O)c1 [Compound I-25]
12 | > 1000 nM | Cn1ccc2ccc(B(O)O)cc21 [Compound I-102]
13 | > 1000 nM | CC(C)(C)OC(=O)n1c(B(O)O)cc2ccccc21 [Compound I-133]
14 | > 1000 nM | Cc1ccc(B(O)O)cc1 [Compound I-96]
15 | 10 to 100 nM | CC(C)c1ccc(B(O)O)cc1 [Compound I-95]
16 | 10 to 1000 nM | O=Cc1ccc(B(O)O)c2ccccc12 [Compound I-104]
17 | > 1000 nM | OB(O)c1cc2ccccc2o1 [Compound I-176]
18 | < 10 nM | Cc1cc(B(O)O)cc(C)c1OCc1cccc(Cl)c1 [Compound I-148]
19 | 10 to 100 nM | CCCOc1ccc(B(O)O)cc1 [Compound I-60]
20 | > 1000 nM | OB(O)c1ccc2c(c1)Oc1ccccc1S2 [Compound I-159]
21 | > 1000 nM | O=C(c1ccc(Oc2ccccc2)cc1)C(F)(F)F [Compound I-132]
22 | 10 to 100 nM | OB(O)c1ccc(I)cc1 [Compound I-70]
23 | 10 to 1000 nM | OB(O)c1cccc2c1oc1ccccc12 [Compound I-4]
24 | 10 to 1000 nM | Cc1ccc(B(O)O)c(F)c1 [Compound I-110]
25 | < 10 nM | OB(O)c1ccc(OCc2ccc(F)cc2)c(Cl)c1 [Compound I-152]

Row | SMILES | Ki
26 | OB(O)c1cc2ccccc2c2ccccc12 [Compound I-183] | > 1000 nM

Same assay, conditions: Table 2, human FAAH (no asterisk); read-out: Activity (Ki)

Row | Ki | SMILES
27 | < 10 nM | O=C(COc1ccc(B(O)O)c(F)c1)c1ccccc1 [II-140]
28 | 10 to 100 nM | OB(O)c1ccc(OC[C@@H](COCc2ccccc2)OCc2ccccc2)cc1F [II-108]
29 | 10 to 100 nM | Cc1cc(NCc2ccc(B3OC(C)(C)C(C)(C)O3)cc2)ccc1F [II-187]
30 | < 10 nM | OB(O)c1cccc(Oc2ccccc2)c1 [II-114]
31 | < 10 nM | CNc1cccc(Oc2ccc(B(O)O)c(F)c2)c1 [II-200]
32 | 10 to 100 nM | CC(C)(C)OC(=O)Nc1cccc(Oc2ccc(B(O)O)cc2)c1 [II-289]
33 | < 10 nM | CN(C)c1cccc(-c2ccc(B(O)O)c(F)c2)c1 [II-4]
34 | < 10 nM | Cc1cc(COc2ccc(B(O)O)c(F)c2)ccc1F [II-146]
35 | 10 to 100 nM | CC1(C)OB(c2ccc(OCCCc3ccccc3)cc2)OC1(C)C [II-170]
36 | < 10 nM | OB(O)c1ccc(OC2CCCCC2)cc1 [II-237]
37 | < 10 nM | COc1ccc(Oc2ccc(B(O)O)cc2)cc1F [II-255]
38 | < 10 nM | C[C@@H](COc1ccc(B(O)O)c(F)c1)c1ccccc1 [II-139]
39 | < 10 nM | OB(O)c1ccc(Oc2cccc(F)c2)cc1 [II-291]
40 | 10 to 1000 nM | CN(C)c1ccc(/N=N/c2ccc(B3OC(C)(C)C(C)(C)O3)cc2)cc1 [II-185]
41 | < 10 nM | COc1cccc(Oc2ccc(B(O)O)c(F)c2)c1 [II-206]
42 | < 10 nM | c1ccc(Oc2ccc(B(Oc3cccc4cccnc34)c3ccccc3)cc2)cc1 [II-75]
43 | 10 to 100 nM | COc1c(C)cc(Oc2ccc(B(O)O)cc2)cc1C [II-239]
44 | 10 to 100 nM | O=C(N[C@H](COc1ccc(B(O)O)c(F)c1)Cc1ccccc1)c1ccccc1 [II-96]
45 | > 1000 nM | c1ccc(B2CCCO2)cc1 [II-186]
46 | 10 to 100 nM | CC1(C)OB(c2ccc(OCc3ccn[nH]3)cc2F)OC1(C)C [II-147]

Row | Ki | SMILES
47 | 10 to 100 nM | Cc1cc(B(O)O)ccc1-c1ccccc1 [II-33]
48 | > 1000 nM | Nc1cc(Oc2cccc(F)c2)ccc1B(O)O [II-162]
49 | 10 to 100 nM | OB(O)c1csc2cc(Cl)ccc12 [II-24]
50 | > 1000 nM | OB(c1ccccc1)c1ccccc1 [II-83]
51 | 10 to 100 nM | Cc1cc(COC(=O)c2ccc(B(O)O)cc2)ccc1F [II-247]
52 | 10 to 100 nM | OB(O)c1ccc(OCc2cncs2)cc1F [II-159]
53 | < 10 nM | Cc1cc(Oc2ccc(B(O)O)c(F)c2)ccc1Cl [II-213]
54 | < 10 nM | CCCOc1ccc(Oc2ccc(B(O)O)cc2)cc1F [II-273]
55 | < 10 nM | OB(O)c1ccc(OCCc2cccnc2)cc1F [II-109]
56 | < 10 nM | CCCCB(Oc1cccc2cccnc12)c1ccc(Oc2ccccc2)cc1 [II-55]
57 | 10 to 100 nM | OB(O)c1csc2c(Cl)cccc12 [II-23]
58 | 10 to 100 nM | CC(C)(C)OC(=O)N1CCC[C@H]1COCc1ccc(B(O)O)cc1 [II-107]
59 | > 1000 nM | Cc1ccc2ccc(B(O)O)c(F)c2n1 [II-60]
60 | < 10 nM | OB(O)c1ccc(COC2CCc3ccccc32)cc1 (stereo not shown) [II-124]
61 | < 10 nM | CC(Cc1ccccc1)Oc1ccc(B(O)O)c(F)c1 (stereo not shown) [II-136]
62 | < 10 nM | OB(O)c1ccc(COCc2ccc(C(F)(F)F)cc2)cc1F [II-71]
63 | 10 to 100 nM | O=C(c1ccc(B(O)O)cc1)N1CCCCC1 [II-164]
64 | < 10 nM | OB(O)c1ccc(Oc2cccc(OC(F)(F)F)c2)cc1 [II-244]
65 | < 10 nM | CC(=O)c1ccc(-c2ccc(B(O)O)cc2)cc1 [II-295]
66 | 10 to 100 nM | O=C(Cc1ccccc1)Nc1ccc(B(O)O)cc1 [II-248]

Row | Ki | SMILES
67 | < 10 nM | C[C@H](COc1ccc(B(O)O)c(F)c1)c1ccccc1 [II-137]
68 | 10 to 100 nM | CN(Cc1ccccc1)C(=O)c1ccc(B(O)O)cc1 [II-163]
69 | 10 to 1000 nM | CN(C)C(=O)C(Oc1ccc(B(O)O)cc1)c1ccccc1 (stereo not shown) [II-219]
70 | < 10 nM | OB(O)c1ccc(-c2ccc(-c3ccccc3)c(F)c2)cc1F [II-10]
71 | < 10 nM | Cc1ccc(Oc2ccc(B(O)O)cc2)cc1[N+](=O)[O-] [II-275]
72 | < 10 nM | OB(O)c1ccc(COC2CCCCC2)cc1 [II-127]
73 | < 10 nM | OB(O)c1ccc2sc(COc3ccccc3)cc2c1 [II-73]
74 | 10 to 1000 nM | OB(O)c1ccc2occc2c1 [II-47]
75 | < 10 nM | OB(O)c1ccc(Oc2cc(F)c(F)c(F)c2)cc1 [II-263]
76 | < 10 nM | Nc1cccc(CCOc2ccc(B(O)O)c(F)c2)c1 [II-37]
77 | < 10 nM | OB(O)c1ccc(COCc2ccccc2)cc1F [II-28]
78 | 10 to 100 nM | CC(=O)Oc1ccc(-c2ccc(B(O)O)cc2)cc1 [II-299]
79 | 10 to 1000 nM | O=C(N[C@@H](COc1ccc(B(O)O)c(F)c1)Cc1ccccc1)c1ccccc1 [II-105]
80 | < 10 nM | O=C1c2cc(B(O)O)ccc2CC1Cc1ccccc1 (stereo not shown) [II-25]
81 | 10 to 100 nM | OB(O)c1ccc(COCc2ccccc2-c2ccccc2)cc1 [II-94]
82 | < 10 nM | OB(O)c1ccc(Oc2cccnc2)cc1F [II-149]
83 | 10 to 100 nM | O=C1c2ccc(B(O)O)cc2C(=O)N1c1ccccc1 [II-144]
84 | < 10 nM | Nc1ccc(CCOc2ccc(B(O)O)c(F)c2)cc1 [II-35]
85 | > 1000 nM | NC(=O)c1cccc(-c2cccc(B(O)O)c2)c1 [II-303]
